Test results taken from patent EP4772500A1, “NOVEL ISOXAZOLE COMPOUND AS TM4SF5-SPECIFIC INHIBITOR AND USE THEREOF” (Seoul National University R&DB Foundation, priority 2023, dated 2025).
pIC50: −log10 of the molar value.

Assays:
TM4SF5 = target: T1, TM4SF5 (Homo sapiens, UniProt O14894); experiment: 1,2-3H-Cholesterol binding to pulled-down TM4SF5; design: expressed in transfected cells; captured on streptavidin agarose; conditions: 1,2-3H-Cholesterol (50 µM); for binding of TM4SF5 to cholesterol: drug 2.5 µM, 1 hour (FIG. 19c); for pIC50: Huh7KO Strep-TM4SF5 (FIG. 19e), read-out: concentration at which binding between TM4SF5 and cholesterol was reduced by 50%
T1 sequence (O14894 1-197): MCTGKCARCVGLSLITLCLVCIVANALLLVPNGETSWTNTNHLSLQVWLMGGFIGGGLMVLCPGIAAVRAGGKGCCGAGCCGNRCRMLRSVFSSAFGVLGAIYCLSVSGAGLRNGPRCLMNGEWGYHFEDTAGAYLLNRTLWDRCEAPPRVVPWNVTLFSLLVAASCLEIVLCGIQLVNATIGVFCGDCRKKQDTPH
Method: (a) Expression vectors for a control vector, TM4SF1, TM4SF5 WT, and R113Q, C118/145A, H127A, and N138A mutants of TM4SF5 were injected into the HEK293FT cell line, which was confirmed not to express TM4SF5, and allowed to express for 48 hours. (b) Huh7KO cell lines, in which TM4SF5 was knocked out in Huh7, were stably infected with a retrovirus encoding pBabe-EV or pBabe-TM4SF5-HA. […] (d) Strep-EV, Strep-PD-L1 WT, and 3NQ (N192/200/219Q) and 4NQ (N35/192/200/219Q) N-glycosylation mutants were injected into Huh7 cells to be expressed. (e) Strep-EV and Strep-TM4SF5 expression vectors were injected into Huh7KO cells and allowed to express for 48 hours. (a-e) After obtaining cell extracts, TM4SF5-strep, TM4SF5-HA, or PD-L1-strep was pulled down with streptavidin agarose resin or anti-HA antibody from extracts containing 0.2, 0.25, or 1.0 mg of protein for each experimental condition. Each of the pulled-down beads was treated with ^14C-labelled ST-5-002 (10, 25, or various indicated concentrations, µM) for 1 hour in the presence or absence of 400 µM of cold ST-5-002 (a-b). Alternatively, they were treated with 1,2-^3H-Cholesterol (50 µM) alone or together with ST-3-001 (negative control compound), ST-5-001, or ST-5-002 (2.5 µM each) for 1 hour (c-e). For the experimental samples of each condition, radioactive isotope values were repeatedly measured using a TriCarb scintillation counter (PerkinElmer, Waltham, MA).

TM4SF5 and PD-L1 = target: T2, TM4SF5 and PD-L1 (Homo sapiens, UniProt O14894); experiment: Pulldown: binding between TM4SF5 and PD-L1; assay type: cell-based; conditions: 2.5 µM, 24 hours, SNU449 (FIG. 17c)
T2 construct: expressed in transfected cells; host or cells: SNU449 cells stably expressing TM4SF5, additionally transfected with PD-L1-HA cDNA
T2 sequence (O14894 1-197): T1 sequence (O14894 1-197)
Method: Cells were cultured to ~60% density in a cell incubator at 37°C and 5% CO2, and then transfected using PEI and cultured in a cell incubator at 37°C for two days. After cultivation, cell extracts were obtained by the method described above. After precipitating a desired protein from the cell extracts using an immunoprecipitation method, the binding proteins were identified by the Western blot technique described above. Specifically, cells cultured in a 100 mm cell culture dish for two days were washed twice with PBS, and protease inhibitor cocktails (GenDepot, USA) were added to 500 µl of immunoprecipitation lysis buffer (0.5% Triton X-100 or Brij 58, 40 mM HEPES, 150 mM NaCl, 1 mM EDTA, pH 7.4), followed by treatment at 4°C for 15 minutes. After collecting the cells, centrifugation was performed at 12,000x g at 4°C for 15 minutes, and the supernatant was transferred to a new microcentrifuge tube to obtain a cell extract. Proteins therein were quantified using a BCA reagent (Thermo Scientifics, USA). An electrophoresis sample was prepared by adding 4x laemmli sample buffer to a portion of the quantified sample and boiling at 100°C for 5 minutes. For immunoprecipitation, Streptavidin Agarose Resin (Thermo Fisher Scientific) or anti-HA antibody-coated Sepharose beads were added in proportion to the quantified protein amount, followed by rotation at 4°C for 4 hours, and then centrifugation was performed at 7,000x g at 4°C for 5 minutes and the supernatant was discarded. […]
(a-b) The same number of SNU449-EV or SNU449-TM4SF5 cells were transferred to culture vessels and cultured overnight. […] From the cell extracts, Strep-TM4SF5 was pulled down with strep-agarose beads, and then Western blotting was performed using antibodies against the indicated proteins, or the intracellular localization and expression level of TM4SF5 (red fluorescence) and PD-L1 (green fluorescence) were confirmed with a fluorescence microscope through immunostaining along with DNA staining using DAPI.

binding of TM4SF5 to cholesterol (TM4SF5)	binding between TM4SF5 and PD-L1 (TM4SF5 and PD-L1)	pIC50 (TM4SF5)	SMILES
not affected	–	–	COc1cccc(-c2cc(-c3ccc(NC(C)=O)cc3)no2)c1 [ST-3-001, N-(4-(5-(3-methoxyphenyl)isoxazole-3-yl)phenyl)acetamide]
–	inhibition	–	Cc1ccc(S(=O)(=O)Nc2ccc(C(=O)/C=C/c3ccc(O)cc3)cc2)cc1 [TSAHC, 4'-(p-toluenesulfonylamino)-4-hydroxychalcone, reference compound]
inhibited	decreased and inhibited	6.10	Cc1ccc(C(=O)Nc2ccc(-c3cc(-c4ccc(O)cc4)no3)cc2)cc1 [ST-5-002, N-(4-(3-(4-hydroxyphenyl)isoxazole-5-yl)phenyl)-4-methylbenzamide]
inhibited	decreased and inhibited	5.21	CC(=O)Nc1ccc(-c2cc(-c3ccc(O)cc3)no2)cc1 [ST-5-001, N-(4-(3-(4-hydroxyphenyl)isoxazole-5-yl)phenyl)acetamide]
